# Measured values: US9695155B2, “Herbicidal substituted pyrimidinyloxy benzene compounds” (E. I. DU PONT DE NEMOURS AND COMPANY, priority 2013, dated 2017)
# Assays:
# barnyardgrass [1] = test: Test A preemergence; format: in vivo, Echinochloa crus-galli; settings: for Barnyardgrass plant response rating (0 to 100 scale): 31 g ai/ha
# Procedure, shortened: (§1)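 Injury scores run from 0, no effect, to 100, complete control, judged by eye against untreated plants roughly 10 days after treatment. Chemicals carried a surfactant in a non-phytotoxic solvent and went onto loam–sand soil preemergence or onto one- to two-leaf seedlings postemergence.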
# kochia [2] = test: Test A preemergence; format: in vivo, Kochia scoparia
# Procedure, shortened: as §1
# ragweed [3] = test: Test A preemergence; format: in vivo, Ambrosia elatior
# Procedure, shortened: as §1
# Italian ryegrass [4] = test: Test A preemergence; format: in vivo, Lolium multiflorum
# Procedure, shortened: as §1
# giant foxtail [5] = test: Test A preemergence; format: in vivo, Setaria faberii
# Procedure, shortened: as §1
# pigweed [6] = test: Test A preemergence; format: in vivo, Amaranthus retroflexus
# Procedure, shortened: as §1
# barnyardgrass [7] = test: Test A postemergence; format: in vivo, Echinochloa crus-galli
# Procedure, shortened: as §1
# kochia [8] = test: Test A postemergence; format: in vivo, Kochia scoparia
# Procedure, shortened: as §1
# ragweed [9] = test: Test A postemergence; format: in vivo, Ambrosia elatior; settings: for Ragweed plant response rating: 125 g ai/ha
# Procedure, shortened: as §1
# Italian ryegrass [10] = test: Test A postemergence; format: in vivo, Lolium multiflorum; settings: for Ryegrass, Italian plant response rating: 125 g ai/ha
# Procedure, shortened: as §1
# giant foxtail [11] = test: Test A postemergence; format: in vivo, Setaria faberii
# Procedure, shortened: as §1
# pigweed [12] = test: Test A postemergence; format: in vivo, Amaranthus retroflexus; settings: for Pigweed plant response rating: 125 g ai/ha
# Procedure, shortened: as §1
# wheat = test: Test A postemergence; format: in vivo, Triticum aestivum; settings: for Wheat plant response rating: 125 g ai/ha
# Procedure, shortened: as §1
# corn = test: Test A postemergence; format: in vivo, Zea mays
# Procedure, shortened: as §1
# blackgrass = test: Test A postemergence; format: in vivo, Alopecurus myosuroides
# Procedure, shortened: as §1
# galium = test: Test A postemergence; format: in vivo, Galium aparine
# Procedure, shortened: as §1
# rice = test: Test B flooded paddy test; format: in vivo, Oryza sativa; settings: Flood, 250 g ai/ha; 0 to 100 scale where 0 is no effect and 100 is complete control
# Procedure, shortened: (§2)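 Seedlings are raised to two leaves, flooded to a depth of 3 cm and dosed by adding the compound to the floodwater. Water level is kept constant, and plants are scored visually versus controls 13–15 days later (0 = no effect, 100 = complete control).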
# sedge, umbrella = test: Test B flooded paddy test; format: in vivo, Cyperus difformis; settings: Flood, 250 g ai/ha; 0 to 100 scale where 0 is no effect and 100 is complete control
# Procedure, shortened: as §2
# Heteranthera limosa = test: Test B flooded paddy test; format: in vivo; settings: Flood, 250 g ai/ha; 0 to 100 scale where 0 is no effect and 100 is complete control
# Procedure, shortened: as §2
# barnyardgrass [13] = test: Test B flooded paddy test; format: in vivo, Echinochloa crus-galli; settings: Flood, 250 g ai/ha; 0 to 100 scale where 0 is no effect and 100 is complete control
# Procedure, shortened: as §2
# [14] = 125 g ai/ha, 0 to 100 scale where 0 is no effect and 100 is complete control
# [15] = 31 g ai/ha, 0 to 100 scale, 0 no effect, 100 complete control
# [16] = 0 to 100 scale where 0 is no effect and 100 is complete control
# [17] = 500 g ai/ha, 0 to 100 scale where 0 is no effect and 100 is complete control
smiles,measurement,setting,value
FC(F)(F)COc1cnn(-c2c(Cl)cccc2Oc2ncc(Cl)cn2)c1 [Compound 110],Barnyardgrass plant response rating (0 to 100 scale),barnyardgrass [1],30
same,"Plant response rating, Barnyardgrass",barnyardgrass [1]; [14],90
same,Kochia plant response rating (0 to 100 scale),kochia [2]; 31 g ai/ha,20
same,"Plant response rating, Kochia",kochia [2]; [14],80
same,Ragweed plant response rating (0 to 100 scale),ragweed [3]; 31 g ai/ha,0
same,"Plant response rating, Ragweed",ragweed [3]; [14],10
same,"Ryegrass, Italian plant response rating (0 to 100 scale)",Italian ryegrass [4]; 31 g ai/ha,0
same,"Plant response rating, Ryegrass, Italian",Italian ryegrass [4]; [14],20
same,"Foxtail, Giant plant response rating (0 to 100 scale)",giant foxtail [5]; 31 g ai/ha,100
same,"Plant response rating, Foxtail, Giant",giant foxtail [5]; [14],100
same,Pigweed plant response rating (0 to 100 scale),pigweed [6]; 31 g ai/ha,100
same,"Plant response rating, Pigweed",pigweed [6]; [14],100
same,"Plant response rating, Barnyardgrass",barnyardgrass [7]; [15],10
same,"Plant response rating, Barnyardgrass",barnyardgrass [7]; [14],90
same,"Plant response rating, Kochia",kochia [8]; [15],90
same,"Plant response rating, Kochia",kochia [8]; [14],100
same,"Plant response rating, Ragweed",ragweed [9]; [15],10
same,"Plant response rating, Ryegrass, Italian",Italian ryegrass [10]; [15],0
same,"Plant response rating, Foxtail, Giant",giant foxtail [11]; [15],20
same,"Plant response rating, Foxtail, Giant",giant foxtail [11]; [14],90
same,"Plant response rating, Pigweed",pigweed [12]; [15],100
same,"Plant response rating, Wheat",wheat; [15],0
same,"Plant response rating, Corn",corn; [15],10
same,"Plant response rating, Corn",corn; [14],50
same,"Plant response rating, Blackgrass",blackgrass; [15],20
same,"Plant response rating, Blackgrass",blackgrass; [14],80
same,"Plant response rating, Galium",galium; [15],40
same,"Plant response rating, Galium",galium; [14],90
same,"Plant response rating, Rice",rice,0
same,"Plant response rating, Sedge, Umbrella","sedge, umbrella",95
same,"Plant response rating, Ducksalad",Heteranthera limosa,95
same,"Plant response rating, Barnyardgrass",barnyardgrass [13],45
CCCOc1cnn(-c2c(F)cccc2Oc2ncc(Cl)cn2)c1 [Compound 127],Barnyardgrass plant response rating (0 to 100 scale),barnyardgrass [1],0
same,"Plant response rating, Barnyardgrass",barnyardgrass [1]; [14],40
same,Kochia plant response rating (0 to 100 scale),kochia [2]; 31 g ai/ha,0
same,"Plant response rating, Kochia",kochia [2]; [14],0
same,Ragweed plant response rating (0 to 100 scale),ragweed [3]; 31 g ai/ha,0
same,"Plant response rating, Ragweed",ragweed [3]; [14],0
same,"Ryegrass, Italian plant response rating (0 to 100 scale)",Italian ryegrass [4]; 31 g ai/ha,0
same,"Plant response rating, Ryegrass, Italian",Italian ryegrass [4]; [14],0
same,"Foxtail, Giant plant response rating (0 to 100 scale)",giant foxtail [5]; 31 g ai/ha,10
same,"Plant response rating, Foxtail, Giant",giant foxtail [5]; [14],60
same,Pigweed plant response rating (0 to 100 scale),pigweed [6]; 31 g ai/ha,0
same,"Plant response rating, Pigweed",pigweed [6]; [14],10
same,"Plant response rating, Barnyardgrass",barnyardgrass [7]; [15],0
same,Barnyardgrass plant response rating,barnyardgrass [7]; [14],10
same,"Plant response rating, Kochia",kochia [8]; [15],0
same,Kochia plant response rating,kochia [8]; [14],30
same,"Plant response rating, Ragweed",ragweed [9]; [15],0
same,Ragweed plant response rating,ragweed [9]; [16],10
same,"Plant response rating, Ryegrass, Italian",Italian ryegrass [10]; [15],0
same,"Ryegrass, Italian plant response rating",Italian ryegrass [10]; [16],0
same,"Plant response rating, Foxtail, Giant",giant foxtail [11]; [15],0
same,"Foxtail, Giant plant response rating",giant foxtail [11]; [14],20
same,"Plant response rating, Pigweed",pigweed [12]; [15],20
same,Pigweed plant response rating,pigweed [12]; [16],30
same,"Plant response rating, Wheat",wheat; [15],0
same,Wheat plant response rating,wheat; [16],0
same,"Plant response rating, Corn",corn; [15],0
same,Corn plant response rating,corn; [14],10
same,"Plant response rating, Blackgrass",blackgrass; [15],0
same,Blackgrass plant response rating,blackgrass; [14],10
same,"Plant response rating, Galium",galium; [15],10
same,Galium plant response rating,galium; [14],20
same,"Plant response rating, Rice",rice,0
same,"Plant response rating, Sedge, Umbrella","sedge, umbrella",0
same,"Plant response rating, Ducksalad",Heteranthera limosa,60
same,"Plant response rating, Barnyardgrass",barnyardgrass [13],0
COc1ccc(C#N)c(-n2cc(Br)cn2)c1Oc1ncc(Cl)cn1 [Compound 212],"Barnyardgrass plant response rating (0 to 100 scale, 0 is no effect, 100 is complete control)",barnyardgrass [1]; 125 g ai/ha,0
same,Barnyardgrass plant response rating,barnyardgrass [1]; [17],20
same,Kochia plant response rating (0 to 100 scale),kochia [2]; 125 g ai/ha,0
same,Kochia plant response rating,kochia [2]; [17],40
same,Ragweed plant response rating (0 to 100 scale),ragweed [3]; 125 g ai/ha,0
same,Ragweed plant response rating,ragweed [3]; [17],0
same,"Ryegrass, Italian plant response rating (0 to 100 scale)",Italian ryegrass [4]; 125 g ai/ha,0
same,"Ryegrass, Italian plant response rating",Italian ryegrass [4]; [17],20
same,"Foxtail, Giant plant response rating (0 to 100 scale)",giant foxtail [5]; 125 g ai/ha,0
same,"Foxtail, Giant plant response rating",giant foxtail [5]; [17],50
same,Pigweed plant response rating (0 to 100 scale),pigweed [6]; 125 g ai/ha,70
same,Pigweed plant response rating,pigweed [6]; [17],90
same,Barnyardgrass plant response rating,barnyardgrass [7]; [14],0
same,"Plant response rating, Barnyardgrass",barnyardgrass [7]; [17],0
same,Kochia plant response rating,kochia [8]; [14],0
same,"Plant response rating, Kochia",kochia [8]; [17],10
same,Ragweed plant response rating,ragweed [9]; [16],0
same,"Plant response rating, Ragweed",ragweed [9]; [17],10
same,"Ryegrass, Italian plant response rating",Italian ryegrass [10]; [16],20
same,"Plant response rating, Ryegrass, Italian",Italian ryegrass [10]; [17],30
same,"Foxtail, Giant plant response rating",giant foxtail [11]; [14],0
same,"Plant response rating, Foxtail, Giant",giant foxtail [11]; [17],50
same,Pigweed plant response rating,pigweed [12]; [16],20
same,"Plant response rating, Pigweed",pigweed [12]; [17],30
same,Wheat plant response rating,wheat; [16],0
same,"Plant response rating, Wheat",wheat; [17],30
same,Corn plant response rating,corn; [14],0
same,"Plant response rating, Corn",corn; [17],0
same,Blackgrass plant response rating,blackgrass; [14],10
same,"Plant response rating, Blackgrass",blackgrass; [17],50
same,Galium plant response rating,galium; [14],10
same,"Plant response rating, Galium",galium; [17],30
same,"Plant response rating, Rice",rice,0
same,"Plant response rating, Sedge, Umbrella","sedge, umbrella",0
same,"Plant response rating, Ducksalad",Heteranthera limosa,0
same,"Plant response rating, Barnyardgrass",barnyardgrass [13],0
